# Data reported in patent US8791132B2, “Compounds and methods for treatment of hypertension” (Medivation Technologies, Inc., priority 2011, dated 2014).
# Values joined by “and” are separate entries in the source; they are usually repeats but may differ in a detail not shown here. Equal values may be shown once.
# Columns and labels:
# [1] = molecular target: T1, rat adrenergic α1B receptor (Rattus norvegicus, UniProt P15823); assay: Radioligand binding, adrenergic α1B ([3H]Prazosin); settings: [3H]Prazosin, repeat assays, each datapoint shown; for Percentage inhibition of ligand binding, Adrenergic α1B / inhibition at 0.1 µM: compound at 0.1 μM; for inhibition at 0.1 µM / inhibition at 0.03 µM: read-out: Percentage inhibition of ligand binding, Adrenergic α1B; for inhibition at 0.03 µM: compound at 0.03 μM
# T1 construct: rat adrenergic α1B receptor obtained from Wistar Rat liver; from tissue; host or cells: Wistar rat liver
# T1 sequence (P15823 1-515): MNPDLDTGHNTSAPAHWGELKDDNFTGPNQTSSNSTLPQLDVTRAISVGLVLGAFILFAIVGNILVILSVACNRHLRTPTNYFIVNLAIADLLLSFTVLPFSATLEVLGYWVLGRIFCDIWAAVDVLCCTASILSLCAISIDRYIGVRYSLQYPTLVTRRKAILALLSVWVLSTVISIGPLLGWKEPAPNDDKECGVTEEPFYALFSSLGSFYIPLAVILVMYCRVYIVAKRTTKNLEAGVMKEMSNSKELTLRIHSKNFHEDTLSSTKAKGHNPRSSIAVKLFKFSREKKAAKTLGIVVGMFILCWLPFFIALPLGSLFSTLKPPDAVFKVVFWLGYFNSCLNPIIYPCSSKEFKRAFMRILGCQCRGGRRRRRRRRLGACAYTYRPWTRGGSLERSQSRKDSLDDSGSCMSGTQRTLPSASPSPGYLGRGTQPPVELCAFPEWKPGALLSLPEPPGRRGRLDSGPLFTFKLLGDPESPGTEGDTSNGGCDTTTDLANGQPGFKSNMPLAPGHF
# In short: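 Specific binding, taken as total minus that remaining with 10 μM phentolamine, is measured after filtration and counting. Rat liver receptor preparation and 0.25 nM [3H]prazosin are incubated with compound in 50 mM Tris-HCl (pH 7.4, 0.5 mM EDTA) at 25° C for 60 min. Activity is reported as percent inhibition.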
# [2] = molecular target: T2, human recombinant adrenergic α2B receptor (Homo sapiens, UniProt P18089); assay: Radioligand binding, adrenergic α2B ([3H]Rauwolscine); settings: for Ki: read-out: Ki α2B
# T2 construct: expressed in transfected cells; host or cells: CHO-K1
# T2 sequence (P18089 1-450): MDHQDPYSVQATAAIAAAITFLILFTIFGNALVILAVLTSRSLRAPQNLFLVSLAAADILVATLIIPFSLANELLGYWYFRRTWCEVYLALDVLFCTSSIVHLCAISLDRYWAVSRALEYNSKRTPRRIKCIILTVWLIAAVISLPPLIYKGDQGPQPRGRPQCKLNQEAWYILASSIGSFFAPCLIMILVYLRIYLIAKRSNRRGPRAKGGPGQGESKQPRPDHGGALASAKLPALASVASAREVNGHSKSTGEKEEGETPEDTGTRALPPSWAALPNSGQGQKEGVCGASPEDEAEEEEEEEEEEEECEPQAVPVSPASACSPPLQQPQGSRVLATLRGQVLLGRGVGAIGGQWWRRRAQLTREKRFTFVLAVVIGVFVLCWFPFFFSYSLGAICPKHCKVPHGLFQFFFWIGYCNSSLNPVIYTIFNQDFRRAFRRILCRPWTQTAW
# In short: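 Assay used CHO-K1-expressed human α2B receptor in Tris-HCl pH 7.4 buffer with MgCl2, EDTA and BSA; 60 min incubation at 25 °C.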
# [3] = molecular target: T3, human recombinant adrenergic α2A receptor (Homo sapiens, UniProt P08913); assay: Radioligand binding, adrenergic α2A ([3H]MK-912); settings: for Percentage inhibition of ligand binding, Adrenergic α2A / inhibition at 0.1 µM: compound at 0.1 μM; for Percentage inhibition of ligand binding, Adrenergic α2A / inhibition at 0.1 µM / inhibition at 0.03 µM: [3H]MK-912, repeat assays, each datapoint shown; for Percentage inhibition of ligand binding, Adrenergic α2A: 0.1 µM; for inhibition at 0.1 µM / inhibition at 0.03 µM: read-out: Percentage inhibition of ligand binding, Adrenergic α2A; for inhibition at 0.03 µM: compound at 0.03 μM
# T3 construct: expressed in transfected cells; host or cells: insect Sf9 cells
# T3 sequence (P08913 1-465): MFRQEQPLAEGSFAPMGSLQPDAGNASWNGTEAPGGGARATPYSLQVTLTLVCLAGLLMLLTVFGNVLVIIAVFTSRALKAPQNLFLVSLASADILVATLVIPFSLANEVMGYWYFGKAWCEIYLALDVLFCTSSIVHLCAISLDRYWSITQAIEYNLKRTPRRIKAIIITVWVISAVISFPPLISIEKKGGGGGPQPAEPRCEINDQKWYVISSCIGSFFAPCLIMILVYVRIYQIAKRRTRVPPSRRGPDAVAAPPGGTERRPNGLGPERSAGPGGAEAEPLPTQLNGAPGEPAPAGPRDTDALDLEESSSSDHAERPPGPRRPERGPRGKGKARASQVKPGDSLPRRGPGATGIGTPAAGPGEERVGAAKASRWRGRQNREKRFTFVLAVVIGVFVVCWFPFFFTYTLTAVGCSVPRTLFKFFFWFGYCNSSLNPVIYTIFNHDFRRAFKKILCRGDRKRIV
# In short: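 Displacement of 1 nM [3H]MK-912 from receptor produced in insect Sf9 cells was measured after 60 min at 25 °C. Readout: percent inhibition of specific binding.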
# [4] = compound at 0.03 μM, [3H]Rauwolscine, repeat assays, each datapoint shown, 0.03 µM
# [5] = compound at 0.03 μM, [3H]Rauwolscine, repeat assays, each datapoint shown, read-out: Percentage inhibition of ligand binding, Adrenergic α2B
Compound,"Percentage inhibition of ligand binding, Adrenergic α1B ([1]; 0.1 µM)","Percentage inhibition of ligand binding, Adrenergic α2B [2, 4]","Percentage inhibition of ligand binding, Adrenergic α2A [3] [%]",other results
"Cc1ccc2c(c1)c1c(n2CC(C)(O)c2ccncc2)CN(C)CC1 (single isomer, unassigned) [19b, 1-(2,6-dimethyl-1,2,3,4-tetrahydro-β-carbolin-9-yl)-2-pyridin-4-yl-propan-2-ol]",62%,27%,9,
"COc1ccc(C(O)Cn2c3c(c4cc(C)ccc42)CCN(C)C3)cc1 (single isomer, unassigned) [20a, 2-(2,6-dimethyl-1,2,3,4-tetrahydro-β-carbolin-9-yl)-1-(4-methoxy-phenyl)-ethanol]",67%,,,"inhibition at 0.03 µM [2, 5]: 28%; inhibition at 0.1 µM [3]: 29%"
"COc1ccc(C(O)Cn2c3c(c4cc(C)ccc42)CCN(C)C3)cc1 (single isomer, unassigned) [20b, 2-(2,6-dimethyl-1,2,3,4-tetrahydro-β-carbolin-9-yl)-1-(4-methoxy-phenyl)-ethanol]",94%,36%,28,
"Cc1ccc2c(c1)c1c(n2CC(O)c2cccnc2)CCN(CCO)C1 (single isomer, unassigned) [21a]",5%,−2%,−1,
"Cc1ccc2c(c1)c1c(n2CC(O)c2cccnc2)CCN(CCO)C1 (single isomer, unassigned) [21b]",−2%,1%,−3,
"Cc1ccc2c(c1)c1c(n2CC(O)c2ccccn2)CN(C)CC1 (single isomer, unassigned) [22a]",19%,,16,"inhibition at 0.03 µM [2, 5]: 22%"
"Cc1ccc2c(c1)c1c(n2CC(O)c2ccccn2)CN(C)CC1 (single isomer, unassigned) [22b]",9%,30%,0,
"CN1CCc2c(c3cc(C(C)(C)O)ccc3n2CC(O)c2ccncc2)C1 (single isomer, unassigned) [23a, 2-(2,3,4,5-tetrahydro-5-(2-hydroxy-2-(pyridin-4-yl)ethyl)-2-methyl-1H-pyrido[4,3-b]indol-8-yl)propan-2-ol]",−20%,6%,4,
"CN1CCc2c(c3cc(C(C)(C)O)ccc3n2CC(O)c2ccncc2)C1 (single isomer, unassigned) [23b, 2-(2,3,4,5-tetrahydro-5-(2-hydroxy-2-(pyridin-4-yl)ethyl)-2-methyl-1H-pyrido[4,3-b]indol-8-yl)propan-2-ol]",4%,−3%,1,
"Cc1ccc2c(c1)c1c(n2CC(C)(O)c2cccnc2)CCNC1 (single isomer, unassigned) [24a]",,63%,,inhibition at 0.1 µM [1]: 8%; inhibition at 0.1 µM [3]: 8%
"Cc1ccc2c(c1)c1c(n2CC(C)(O)c2cccnc2)CCNC1 (single isomer, unassigned) [24b]",,29%,15,"Percentage inhibition of ligand binding, Adrenergic α1B [1]: 8%"
"Cc1cnc2c(c1)c1c(n2CC(C)(O)c2cccnc2)CCN2CCCC12 (single isomer, unassigned) [26b]",15%,75% and 88%,12,"inhibition at 0.1 µM ([2]; compound at 0.1 μM, [3H]Rauwolscine, repeat assays, each datapoint shown, read-out: Percentage inhibition of ligand binding, Adrenergic α2B): 100%; Ki [2]: 3.06 nM"
"Cc1cnc2c(c1)c1c(n2CC(C)(O)c2cccnc2)CCN2CCCC12 (single isomer, unassigned) [26c]",1%,1% and 7%,19,
"Cc1cnc2c(c1)c1c(n2CC(C)(O)c2cccnc2)CCN2CCCC12 (single isomer, unassigned) [26d]",−2%,6% and 11%,0,
"Cc1ccc2c(c1)c1c(n2CC(N)c2ccncc2)CCN(C)C1 (single isomer, unassigned) [27b, 2-(1,2,3,4-tetrahydro-2,8-dimethylpyrido[4,3-b]indol-5-yl)-1-(pyridin-4-yl)ethanamine]",6% and 16%,30% and 36%,,"Percentage inhibition of ligand binding, Adrenergic α2B ([2]; compound at 0.1 μM, [3H]Rauwolscine, repeat assays, each datapoint shown, 0.1 µM): 48%; Ki [2]: 43.4 nM; Ki [3]: 3710 nM"
"CN1CCc2c(n(CC(C)(O)c3cccnc3)c3ccc(Cl)cc23)C1 (single isomer, unassigned) [28a]",41%,96%,,inhibition at 0.1 µM [3]: 28%
"CN1CCc2c(n(CC(C)(O)c3cccnc3)c3ccc(Cl)cc23)C1 (single isomer, unassigned) [28b]",20%,37%,24,
"Cc1ccc2c(c1)c1c(n2CC(C)(O)c2ccc(C)nc2)CCN(C)C1 (single isomer, unassigned) [29a]",38%,100%,39,"inhibition at 0.03 µM [1]: 19%; inhibition at 0.1 µM [1]: 32%; inhibition at 0.03 µM [2, 5]: 98%; Ki [2]: 1.09 nM; Ki [3]: 77.2 nM; inhibition at 0.03 µM [3]: 16%; inhibition at 0.1 µM [3]: 35%"
"Cc1ccc2c(c1)c1c(n2CC(O)c2ccc(F)cc2)CCN(C)C1 (single isomer, unassigned) [30b]",91%,102%,75,"inhibition at 0.03 µM [1]: 68%; inhibition at 0.1 µM [1]: 89%; inhibition at 0.03 µM [2, 5]: 100%; Ki [2]: 1.13 nM; Ki [3]: 14.2 nM; inhibition at 0.03 µM [3]: 42%; inhibition at 0.1 µM [3]: 74%"
